Source: patent publication US8974793B2, “Methods and systems for inducing immunologic tolerance to non-self antigens” (The Governors Of The University Of Alberta, priority 2008, dated 2015)

Assay: Blood plasma stability of A type I antigen functionalized silica-coated stainless steel (modified ELISA readout)
Assay type: in vitro ADME, pig
Conditions: I-14 bound to silica-coated stainless steel, 12 days agitation
Experimental: Several silica-coated stainless steel samples bearing the A type I antigen were prepared, according to the general procedure defined above. Each of the samples was placed in three different types of pig blood plasma (blood group O, blood group A and commercial pooled blood group O plasma). The samples were agitated on a shaker table for 12 days. After 12 days, the samples were removed from the pig blood plasma and placed in ethanol.
Each silica-coated stainless steel stent surface was treated with a solution of 2% BSA in PBST (200 μL) and shaken (14 h, 5° C.). The surface was then removed and then incubated with mouse anti-A IgM antibodies (5° C., 14 h, 0.023 mg/mL, 50 μL). The surface was then removed, thoroughly washed with PBST and then treated with a secondary HRP conjugated goat anti-mouse IgM antibody (21° C., 3 h, 0.013 mg/mL, 50 μL). The surface was thoroughly washed with PBST to remove unbound antibody and then treated with a solution of SigmaFast OPD (200 μL, 1 h). An aliquot of this solution (100 μL) was then taken and the absorbance measured at 450 nm.

Measured: attachment of antigen to silica-coated stainless steel after plasma incubation (modified ELISA, anti-A IgM, absorbance 450 nm)

CO[Si](CCCSCCCCCCCCO[C@@H]1O[C@H](CO)[C@@H](O)[C@H](O[C@@H]2O[C@H](CO)[C@H](O)[C@H](O[C@H]3O[C@H](CO)[C@H](O)[C@H](O)[C@H]3NC(C)=O)[C@H]2O[C@@H]2O[C@@H](C)[C@@H](O)[C@@H](O)[C@@H]2O)[C@H]1NC(C)=O)(OC)OC [I-14, 8-(3-(trimethoxysilyl)propylthio)octan-1-yl 2-N-Acetyl-3-O-(3-O-(2-N-acetyl-2-deoxy-α-D-galactopyranosyl)-2-O-(α-L-fucopyranosyl)-β-D-galactopyranosyl)-2-deoxy-β-D-glucopyranoside]
confirming the attachment: pig A blood plasma | pig O blood plasma | pig-pooled O blood plasma
